The values that follow come from US6664260B2, “Heterocyclic ether substituted imidazoquinolines” (3M Innovative Properties Company, priority 2000, dated 2003).

Data set [1] deals with tumor necrosis factor (α). As to the kind of experiment: Cytokine Induction in Human Cells: tumor necrosis factor (α) secreted by PBMCs, ELISA. Also on record: key to Lowest Effective Concentration (μM) Tumor Necrosis Factor: A “*” indicates that no induction was seen at any of the tested concentrations; generally the highest tested concentration was 10 or 30 μM. As to conditions: incubated 18 to 24 hours, lowest concentration found to induce tumor necrosis factor; for minimal effective concentration: PBMC. The data set is classed as cell-based. From the text: (§1) An in vitro human blood cell system is used to assess cytokine induction. Activity is based on the measurement of interferon and tumor necrosis factor (α) (IFN and TNF, respectively) secreted into culture media as described by Testerman et. al. In “Cytokine Induction by the Immunomodulators Imiquimod and S-27609”, Journal of Leukocyte Biology, 58, 365-372 (September, 1995).
(§2) Whole blood from healthy human donors is collected by venipuncture into EDTA vacutainer tubes. Peripheral blood mononuclear cells (PBMCs) are separated from whole blood by density gradient centrifugation using Histopaque®-1077. The PBMCs are washed twice with Hank's Balanced Salts Solution and then are suspended at 3-4×10^6 cells/mL in RPMI complete. The PBMC suspension is added to 48 well flat bottom sterile tissue culture plates (Costar, Cambridge, Mass. or Becton Dickinson Labware, Lincoln Park, N.J.) containing an equal volume of RPMI complete media containing test compound.
(§3) The compounds are solubilized in dimethyl sulfoxide (DMSO). The DMSO concentration should not exceed a final concentration of 1% for addition to the culture wells
(§4) The solution of test compound is added at 60 μM to the first well containing RPMI complete and serial 3 fold dilutions are made in the wells. The PBMC suspension is then added to the wells in an equal volume, bringing the test compound concentrations to the desired range (0.12 to 30 μM). The final concentration of PBMC suspension is 1.5-2×10^6 cells/mL. The plates are covered with sterile plastic lids, mixed gently and then incubated for 18 to 24 hours at 37° C. in a 5% carbon dioxide atmosphere.
(§5) Following incubation the plates are centrifuged for 5-10 minutes at 1000 rpm (˜200×g) at 4° C. The cell-free culture supernatant is removed with a sterile polypropylene pipet and transferred to sterile polypropylene tubes. Samples are maintained at −30 to −70° C. until analysis. The samples are analyzed for interferon (α) and for tumor necrosis factor (α) by ELISA.
Tumor necrosis factor (α) (TNF)concentration is determined using ELISA kits available from Genzyme, Cambridge, Mass.; R&D Systems, Minneapolis, Minn.; or Pharmingen, San Diego, Calif. Results are expressed in pg/mL.
(§6) The table below lists the lowest concentration found to induce interferon and the lowest concentration found to induce tumor necrosis factor for each compound.

Data set [2] concerns interferon (α). As to the kind of experiment: Cytokine Induction in Human Cells: interferon (α) secreted by PBMCs, ELISA. The data set is classed as cell-based. Also on record: key to Lowest Effective Concentration (μM) Interferon: A “*” indicates that no induction was seen at any of the tested concentrations; generally the highest tested concentration was 10 or 30 μM. As to conditions: incubated 18 to 24 hours, lowest concentration found to induce interferon; for minimal effective concentration: PBMC.
Description: as §1, §2, §3, §4, §5
Interferon (α) concentration is determined by ELISA using a Human Multi-Species kit from PBL Biomedical Laboratories, New Brunswick, N.J. Results are expressed in pg/mL.
as §6

Counter-ions that a name gives are not always drawn.

In the case of `Nc1nc2ccccc2c2c1ncn2CCOCc1cn(Cc2ccccc2)nn1` (as salt: hydrochloride) [Example 10, 1-{2-[(1-Benzyl-1H-1,2,3-triazol-4-yl)methoxy]ethyl}-1H-imidazo[4,5-c]quinoline-4-amine hydrochloride], the melting point fell in the range of 209 to 211 °C.

`Nc1nc2ccccc2c2c1ncn2CCOCc1cccnc1` (as salt: hydrochloride) [Example 13, 1-[2-(Pyridin-3-ylmethoxy)ethyl]-1H-imidazo[4,5-c]quinolin-4-amine Hydrochloride] came in with a melting point of 229 to 231 °C.

`Nc1nc2ccccc2c2c1ncn2CCOCC#Cc1ncccn1` (as salt: trifluoroacetate) [Example 17, 1-(2-{[3-(Pyrimidin-2-yl)-2-propynyl]oxy}ethyl)-1H-imidazo[4,5-c]quinolin-4-amine trifluoroacetate] had a melting point of 214 to 215 °C.

Consider `Nc1nc2ccccc2c2c1ncn2CCOCC#Cc1ccncc1` (as salt: trifluoroacetate) [Example 18, 1-(2-{[3-(Pyrid-4-yl)-2-propynyl]oxy}ethyl)-1H-imidazo[4,5-c]quinolin-4-amine bis(trifluoroacetate)], for which the melting point is 135 °C (dec.).

Compound `Nc1nc2ccccc2c2c1ncn2CCOCC#Cc1ccoc1` (as salt: trifluoroacetate) [Example 19, 1-(2-{[3-(Fur-3-yl)-2-propynyl]oxy}ethyl)-1H-imidazo[4,5-c]quinolin-4-amine trifluoroacetate] yielded a melting point of 160 to 162 °C.

As to `Nc1nc2ccccc2c2c1ncn2CCOCC#Cc1cncc2ccccc12` [Example 1, 1-(2-{[3-(Isoquinolin-4-yl)-2-propynyl]oxy}ethyl)-1H-imidazo[4,5-c]quinolin-4-amine], the minimal effective concentration in data set [1] is 3.33 µM; in data set [2], 0.12 µM.

For `Nc1nc2ccccc2c2c1ncn2CCOCCCc1cn[nH]c1` [Example 3, 1-{2-[3-(1H-Pyrazol-4-yl)propoxy]ethyl}-1H-imidazo[4,5-c]quinolin-4-amine], the “Lowest Effective Concentration (μM) Tumor Necrosis Factor” value in data set [1] is given as “*”. This compound displayed a minimal effective concentration in data set [2] of 0.04 µM.

With `Nc1nc2ccccc2c2c1ncn2CCOCCCc1cccnc1` [Example 8, 1-[2-(3-Pyridin-3-ylpropoxy)ethyl]-1H-imidazo[4,5-c]quinolin-4-amine Bis(trifluoroacetate)], the values for the minimal effective concentration in data set [1] and in data set [2] were 0.12 µM and 0.04 µM, respectively.

On to `Nc1nc2ccccc2c2c1ncn2CCOCCCc1cncnc1` [Example 9, 1-[2-(3-Pyrimidin-5-ylpropoxy)ethyl]-1H-imidazo[4,5-c]quinolin-4-amine], for which the results for the minimal effective concentration in data set [1] and in data set [2] were 3.33 µM and 0.12 µM, respectively.

With `Nc1nc2ccccc2c2c1ncn2CCOCc1cn(Cc2ccccc2)nn1` [Example 10, 1-{2-[(1-Benzyl-1H-1,2,3-triazol-4-yl)methoxy]ethyl}-1H-imidazo[4,5-c]quinoline-4-amine hydrochloride], the minimal effective concentration in data set [1] and in data set [2] was 1.11 µM each time.

As to `Nc1nc2ccccc2c2c1ncn2CCOCc1cc2ccccc2o1` [Example 12, 1-[2-(Benzo[b]furan-2-ylmethoxy)ethyl]-1H-imidazo[4,5-c]quinolin-4-amine], the “Lowest Effective Concentration (μM) Tumor Necrosis Factor” value in data set [1] is “*”. In addition, in data set [2], the minimal effective concentration was 1.11 µM.

For the compound `Nc1nc2ccccc2c2c1ncn2CCOCc1cccnc1` [Example 13, 1-[2-(Pyridin-3-ylmethoxy)ethyl]-1H-imidazo[4,5-c]quinolin-4-amine Hydrochloride], the minimal effective concentration amounted to 1.11 µM in data set [1] and 0.37 µM in data set [2].

For the compound `Nc1nc2ccccc2c2c1ncn2CCOCC#Cc1ncccn1` [Example 17, 1-(2-{[3-(Pyrimidin-2-yl)-2-propynyl]oxy}ethyl)-1H-imidazo[4,5-c]quinolin-4-amine trifluoroacetate], the minimal effective concentration in data set [1] and in data set [2] was 0.37 µM in each case.

Turning to `Nc1nc2ccccc2c2c1ncn2CCOCC#Cc1ccncc1` [Example 18, 1-(2-{[3-(Pyrid-4-yl)-2-propynyl]oxy}ethyl)-1H-imidazo[4,5-c]quinolin-4-amine bis(trifluoroacetate)], the minimal effective concentration came out at 10 µM in data set [1] and 0.37 µM in data set [2].

With `Nc1nc2ccccc2c2c1ncn2CCOCC#Cc1ccoc1` [Example 19, 1-(2-{[3-(Fur-3-yl)-2-propynyl]oxy}ethyl)-1H-imidazo[4,5-c]quinolin-4-amine trifluoroacetate], the results for the minimal effective concentration in data set [1] and in data set [2] were 3.33 µM and 0.12 µM, respectively.

As to `Nc1nc2ccccc2c2c1ncn2CCOCC#Cc1csc(C=O)c1` [Example 20, 4-{3-[2-(4-Amino-1H-imidazo[4,5-c]quinolin-1-yl)ethoxy]-propyn-1-yl}thiophen-2-ylcarboxaldehyde trifluoroacetate], the values for the minimal effective concentration in data set [1] and in data set [2] were 3.33 µM and 0.12 µM, respectively.

Turning to `Nc1nc2ccccc2c2c1ncn2CCOCC#Cc1ccccn1` [Example 21, 1-(2-{[3-(Pyrid-2-yl)-2-propynyl]oxy}ethyl)-1H-imidazo[4,5-c]quinolin-4-amine trifluoroacetate], the minimal effective concentration worked out at 10 µM in data set [1] and 1.11 µM in data set [2].

On to `CC(Cn1cnc2c(N)nc3ccccc3c21)OCC1CCCO1` (stereo not drawn) [Example 22], for which the results for the minimal effective concentration in data set [1] and in data set [2] were 10 µM and 1.11 µM, respectively.

For `CC(C)C(COc1ncccc1[N+](=O)[O-])n1cnc2c(N)nc3ccccc3c21` (stereo not drawn) [Example 23], the “Lowest Effective Concentration (μM) Tumor Necrosis Factor” value in data set [1] is on record as “*”. The minimal effective concentration in data set [2] came out at 1.11 µM.

On to `CC(C)C(COCc1csc2ccc(Cl)cc12)n1cnc2c(N)nc3ccccc3c21` (stereo not drawn) [Example 24], for which, in data set [1], the “Lowest Effective Concentration (μM) Tumor Necrosis Factor” value was “*”. Besides, in data set [2], the “Lowest Effective Concentration (μM) Interferon” value is reported as “*”.

For the compound `CC(Cn1cnc2c(N)nc3ccccc3c21)OCc1csc2ccc(Cl)cc12` (stereo not drawn) [Example 25], in data set [1], the “Lowest Effective Concentration (μM) Tumor Necrosis Factor” value is on record as “*”. In data set [2], this compound had a minimal effective concentration of 10 µM.

Turning to `CC(Cn1cnc2c(N)nc3ccccc3c21)Oc1ncccc1[N+](=O)[O-]` (stereo not drawn) [Example 26], the “Lowest Effective Concentration (μM) Tumor Necrosis Factor” value in data set [1] is “*”. The minimal effective concentration in data set [2] is 1.11 µM.

Take `CC(C)C(COc1ccccn1)n1cnc2c(N)nc3ccccc3c21` (stereo not drawn) [Example 27, 1-{2-Methyl-1-[(pyrid-2-yloxy)methyl]propyl}-1H-imidazo[4,5-c]quinoline-4-amine trifluoroacetate]: the “Lowest Effective Concentration (μM) Tumor Necrosis Factor” value in data set [1] was “*”. This compound returned a minimal effective concentration in data set [2] of 1.11 µM.

For the compound `CC(Cn1cnc2c(N)nc3ccccc3c21)Oc1ccc2[nH]c3ccccc3c2c1` (stereo not drawn) [Example 29, 1-[2-(9H-carbazol-3-yloxy)propyl]-1H-imidazo[4,5-c]quinolin-4-amine trifluoroacetate], in data set [1], the “Lowest Effective Concentration (μM) Tumor Necrosis Factor” value is on record as “*”. In data set [2], this compound came in with a minimal effective concentration of 1.11 µM.

As for `CCCCc1nc2c(N)nc3ccccc3c2n1CCOCCCc1cccnc1` [Example 35, 2-Butyl-1-[2-(3-pyridin-3-ylpropoxy)ethyl]-1H-imidazo[4,5-c]quinoline-4-amine], the results for the minimal effective concentration in data set [1] and in data set [2] were 0.12 µM and 0.01 µM, respectively.
